The numbers were not newly measured in US11571438B1, “Nutraceutical compositions to up-regulate SIRT1 and methods of use” (priority 2022, dated 2023), which cites them from elsewhere.

Series [1] deals with AMPK. The following applies: individual administration.
Series [2] relates to mTOR. The following applies: individual administration.

Each structure is given as a SMILES string.

Consider `COc1ccc2cc3[n+](cc2c1OC)CCc1cc2c(cc1-3)OCO2` [berberine], for which the AMPK activation result in series [1] is “statistically significant increase”. The mTOR inhibition entry in series [2] is “statistically significant increase”.
Take `OCCc1ccc(O)cc1` [tyrosol]: in series [1], the AMPK activation entry is “statistically significant increase”. The mTOR inhibition entry in series [2] is reported as “statistically significant increase”.
In the case of `COc1cc(/C=C/C(=O)O)ccc1O` [ferulic acid], in series [1], the AMPK activation entry was “statistically significant increase”. For the same compound, the mTOR inhibition result in series [2] is listed as “statistically significant increase”.
Consider `O=c1c(O)c(-c2ccc(O)c(O)c2)oc2cc(O)cc(O)c12` [quercetin], for which the AMPK activation result in series [1] is listed as “statistically significant increase”. Also, the mTOR inhibition entry in series [2] was “statistically significant increase”.
